Target: T1, human Nav1.8 (hNav1.8) ion channel (Homo sapiens, UniProt Q9Y5Y9)
T1 construct: expressed in transfected cells
Assay: Inhibition of human Nav1.8 stably expressed in SH-SY-5Y cells (membrane potential dye fluorescence assay)
Type: cell-based
Settings: Table 1; SH-SY-5Y hNav1.8 cells, inhibition of membrane depolarisation, FLIPR membrane potential dye, 250 nM TTX, test concentration range 100 μM-0.05 μM; read-out: IC50

T1 sequence (Q9Y5Y9 whole entry): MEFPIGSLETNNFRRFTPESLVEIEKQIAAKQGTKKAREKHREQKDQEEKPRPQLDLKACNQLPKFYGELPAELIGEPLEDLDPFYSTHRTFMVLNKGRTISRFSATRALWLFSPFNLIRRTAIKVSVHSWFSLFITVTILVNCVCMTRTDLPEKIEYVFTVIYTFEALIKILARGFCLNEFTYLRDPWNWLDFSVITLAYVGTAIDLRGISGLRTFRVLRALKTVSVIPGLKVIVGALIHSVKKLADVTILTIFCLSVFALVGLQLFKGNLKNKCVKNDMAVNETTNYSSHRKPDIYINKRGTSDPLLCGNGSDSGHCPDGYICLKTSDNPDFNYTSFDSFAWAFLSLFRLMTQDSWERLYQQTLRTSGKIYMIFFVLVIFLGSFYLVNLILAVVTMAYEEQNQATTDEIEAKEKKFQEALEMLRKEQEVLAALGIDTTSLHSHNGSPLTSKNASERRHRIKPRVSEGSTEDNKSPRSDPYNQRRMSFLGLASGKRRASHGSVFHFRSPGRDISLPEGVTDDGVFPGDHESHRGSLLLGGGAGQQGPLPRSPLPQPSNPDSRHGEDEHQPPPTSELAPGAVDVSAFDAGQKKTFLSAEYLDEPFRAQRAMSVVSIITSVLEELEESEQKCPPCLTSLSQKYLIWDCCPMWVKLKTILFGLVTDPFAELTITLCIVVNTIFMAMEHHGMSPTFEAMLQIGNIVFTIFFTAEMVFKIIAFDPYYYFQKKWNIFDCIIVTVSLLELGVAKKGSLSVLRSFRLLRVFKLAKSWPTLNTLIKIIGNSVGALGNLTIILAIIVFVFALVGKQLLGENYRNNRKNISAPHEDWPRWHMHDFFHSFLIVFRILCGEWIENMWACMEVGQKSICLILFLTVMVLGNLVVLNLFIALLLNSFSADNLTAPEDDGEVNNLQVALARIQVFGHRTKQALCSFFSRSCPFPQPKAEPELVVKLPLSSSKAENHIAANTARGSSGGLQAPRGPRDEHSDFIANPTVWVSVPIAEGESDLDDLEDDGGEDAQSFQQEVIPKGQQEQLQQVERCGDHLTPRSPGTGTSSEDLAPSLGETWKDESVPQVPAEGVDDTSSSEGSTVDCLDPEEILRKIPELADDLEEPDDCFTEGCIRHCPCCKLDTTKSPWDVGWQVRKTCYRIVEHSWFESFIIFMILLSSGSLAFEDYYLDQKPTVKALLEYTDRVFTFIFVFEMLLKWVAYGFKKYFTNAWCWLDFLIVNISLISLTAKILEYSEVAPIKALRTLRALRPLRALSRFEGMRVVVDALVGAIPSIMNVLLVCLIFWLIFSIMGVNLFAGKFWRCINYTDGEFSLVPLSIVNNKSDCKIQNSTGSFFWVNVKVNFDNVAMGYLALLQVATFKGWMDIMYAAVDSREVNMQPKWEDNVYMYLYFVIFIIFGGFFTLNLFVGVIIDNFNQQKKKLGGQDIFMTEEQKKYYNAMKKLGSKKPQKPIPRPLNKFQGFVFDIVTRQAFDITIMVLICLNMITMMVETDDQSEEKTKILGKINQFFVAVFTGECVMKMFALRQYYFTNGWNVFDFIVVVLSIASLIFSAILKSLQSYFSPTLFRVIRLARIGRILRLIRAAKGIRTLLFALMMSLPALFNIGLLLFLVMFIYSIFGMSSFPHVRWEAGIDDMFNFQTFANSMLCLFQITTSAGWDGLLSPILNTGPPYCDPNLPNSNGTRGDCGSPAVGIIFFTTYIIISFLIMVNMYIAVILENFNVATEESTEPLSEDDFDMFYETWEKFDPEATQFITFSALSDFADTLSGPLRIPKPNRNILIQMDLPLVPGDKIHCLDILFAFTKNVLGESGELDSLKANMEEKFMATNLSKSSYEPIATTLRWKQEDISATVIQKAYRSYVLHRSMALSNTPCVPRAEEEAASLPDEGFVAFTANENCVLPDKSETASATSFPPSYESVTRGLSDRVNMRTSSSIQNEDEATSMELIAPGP

Question: Which IC50 does the source give for COc1ccc2c(c1)CN(CCN(Cc1ccccc1)Cc1ccccc1)CC2 [Example 88, Dibenzyl-[2-(7-methoxy-3,4-dihydro-1H-isoquinolin-2-yl)-ethyl]-amine] here?
Answer: The IC50 was 580 nM.

Question: Which IC50 does the source give for COc1ccc2c(c1)CN(CCNCCC(c1ccccc1)c1ccccc1)CC2 [Example 89, (3,3-Diphenyl-propyl)-[2-(7-methoxy-3,4-dihydro-1H-isoquinolin-2-yl)-ethyl]amine] here?
Answer: The IC50 was 490 nM.

Question: How did the IC50 turn out when Oc1cccc2c1CN(Cc1c(F)cccc1Cl)CC2 [Example 91, 2-(2-Chloro-6-fluoro-benzyl)-1,2,3,4-tetrahydro-isoquinolin-8-ol] was run?
Answer: The IC50 was 6910 nM.

Question: Which IC50 does the source give for Oc1cccc2c1CN(Cc1cc(F)ccc1F)CC2 [Example 92, 2-(2,5-Difluoro-benzyl)-1,2,3,4-tetrahydro-isoquinolin-8-ol] here?
Answer: Its IC50 is 5270 nM.

Question: With Oc1cccc2c1CN(Cc1cc(F)cc(F)c1)CC2 [Example 93, 2-(3,5-Difluoro-benzyl)-1,2,3,4-tetrahydro-isoquinolin-8-ol] as the molecule, how does the IC50 read?
Answer: The IC50 was 4720 nM.

Question: Oc1cccc2c1CN(Cc1ccc(SC(F)(F)F)cc1)CC2 [Example 94, 2-(4-Trifluoromethylsulfanyl-benzyl)-1,2,3,4-tetrahydro-isoquinolin-8-ol] was tested. Which IC50 did it give?
Answer: Its IC50 is 2170 nM.

Question: Oc1cccc2c1CN(Cc1cc(C(F)(F)F)cc(C(F)(F)F)c1)CC2 [Example 95, 2-(3,5-Bis-trifluoromethyl-benzyl)-1,2,3,4-tetrahydro-isoquinolin-8-ol] was tested. Which IC50 did it give?
Answer: The IC50 was 1710 nM.

Question: How did the IC50 turn out when Oc1cccc2c1CN(CCCC(c1ccc(F)cc1)c1ccc(F)cc1)CC2 [Example 96, 2-[4,4-Bis-(4-fluoro-phenyl)-butyl]-1,2,3,4-tetrahydro-isoquinolin-8-ol] was run?
Answer: The IC50 was 1940 nM.

Question: Cc1cc(C(C)(CCCN2CCc3cccc(O)c3C2)c2cc(C)c(O)c(C)c2)cc(C)c1O [Example 97, 2-[4,4-Bis-(4-hydroxy-3,5-dimethyl-phenyl)-pentyl]-1,2,3,4-tetrahydroisoquinolin-8-ol] was tested. Which IC50 did it give?
Answer: The IC50 was 1060 nM.

Question: Which IC50 does the source give for “N-Benzhydryl-2-(8-methoxy-3,4-dihydro-1H-isoquinolin-2-yl)-N-phenyl-acetamide [Example 21]” here?
Answer: The IC50 was 1250 nM.

Source: patent publication US20070043024A1, “Azacyclic compounds as inhibitors of sensory neurone specific channels” (priority 2003, published 2007)
